Measured values: article PMC3685175 (Journal of medicinal chemistry, 2013)

Experiments:
Assay type in all cases: biochemical
P450 1A1 = molecular target: T1, P450 1A1 (Homo sapiens, UniProt P04798)
T1 sequence (P04798 1-512): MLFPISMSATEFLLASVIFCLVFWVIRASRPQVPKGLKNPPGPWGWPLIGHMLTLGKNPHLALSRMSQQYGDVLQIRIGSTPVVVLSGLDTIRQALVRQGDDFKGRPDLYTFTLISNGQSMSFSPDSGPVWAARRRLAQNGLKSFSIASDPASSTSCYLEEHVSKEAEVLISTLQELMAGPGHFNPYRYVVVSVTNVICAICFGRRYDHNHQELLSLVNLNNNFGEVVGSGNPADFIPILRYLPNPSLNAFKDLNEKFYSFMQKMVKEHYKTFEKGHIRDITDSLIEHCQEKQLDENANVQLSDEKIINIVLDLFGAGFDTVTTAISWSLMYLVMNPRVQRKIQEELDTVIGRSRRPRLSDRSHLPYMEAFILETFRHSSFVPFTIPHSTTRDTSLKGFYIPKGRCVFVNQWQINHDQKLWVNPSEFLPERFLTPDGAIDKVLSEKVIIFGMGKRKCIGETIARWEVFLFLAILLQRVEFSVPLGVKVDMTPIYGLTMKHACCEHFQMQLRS

P450 1A2 = molecular target: T2, P450 1A2 (Homo sapiens, UniProt P05177)
T2 sequence (P05177 1-516): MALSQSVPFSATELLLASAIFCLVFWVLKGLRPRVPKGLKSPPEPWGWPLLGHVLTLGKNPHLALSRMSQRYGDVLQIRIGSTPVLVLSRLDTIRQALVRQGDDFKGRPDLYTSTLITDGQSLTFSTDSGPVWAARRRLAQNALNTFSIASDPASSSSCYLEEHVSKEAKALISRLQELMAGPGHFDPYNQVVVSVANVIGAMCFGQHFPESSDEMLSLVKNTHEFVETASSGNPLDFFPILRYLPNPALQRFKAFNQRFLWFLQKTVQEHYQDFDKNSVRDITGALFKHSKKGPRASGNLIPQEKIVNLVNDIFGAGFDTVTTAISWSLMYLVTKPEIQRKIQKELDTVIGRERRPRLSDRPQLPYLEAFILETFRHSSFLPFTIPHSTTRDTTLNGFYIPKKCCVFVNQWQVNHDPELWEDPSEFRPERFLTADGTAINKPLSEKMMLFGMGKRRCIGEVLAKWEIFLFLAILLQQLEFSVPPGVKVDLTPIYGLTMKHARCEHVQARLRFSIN

P450 1B1 = molecular target: T3, P450 1B1 (Homo sapiens, UniProt Q16678); settings: from IC50 values
T3 sequence (Q16678 1-543): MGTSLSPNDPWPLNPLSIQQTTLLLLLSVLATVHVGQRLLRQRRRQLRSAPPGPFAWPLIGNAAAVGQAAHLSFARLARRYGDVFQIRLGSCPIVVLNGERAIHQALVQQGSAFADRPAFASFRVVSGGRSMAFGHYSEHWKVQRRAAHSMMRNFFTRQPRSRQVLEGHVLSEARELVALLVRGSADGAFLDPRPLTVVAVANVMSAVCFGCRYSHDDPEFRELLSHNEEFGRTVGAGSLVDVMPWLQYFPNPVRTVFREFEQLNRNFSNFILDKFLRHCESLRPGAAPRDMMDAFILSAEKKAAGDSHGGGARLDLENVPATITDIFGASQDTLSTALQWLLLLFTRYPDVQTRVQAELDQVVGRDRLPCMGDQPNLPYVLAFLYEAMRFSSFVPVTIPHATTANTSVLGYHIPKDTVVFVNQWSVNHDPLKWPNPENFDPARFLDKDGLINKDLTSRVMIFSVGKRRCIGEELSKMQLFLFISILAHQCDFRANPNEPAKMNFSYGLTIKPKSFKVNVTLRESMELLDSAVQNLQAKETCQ

[1] = Kitz-Wilson plot, mechanism-based inactivation

Row | SMILES | KI, P450 1A1 (P450 1A1; [1]) [µM] | mechanism of inhibition of P450 1A1 (P450 1A1; in words) | KI, P450 1A2 (P450 1A2; [1]) [µM] | mechanism of inhibition of P450 1A2 (P450 1A2; in words) | effect on P450 1A1 (P450 1A1; 0.1 μM inhibitor, in words) | effect on P450 1A2 (P450 1A2; 0.1 μM inhibitor, in words) | inhibition of P450 1A2 (P450 1A2; in words (conclusion)) | selectivity for P450 1B1 over P450 1A1 (P450 1B1) [times] | selectivity for P450 1B1 over P450 1A2 (P450 1B1)
1 | C#CCOc1cccc(-c2cc(=O)c3c(O)cccc3o2)c1 [5H3′FPE, 5-Hydroxy-2-(3-(propargyloxy)phenyl)-4H-chromen-4-one] | 0.13 | mechanism-based inhibitor | 0.071 | mechanism-based inhibitor |  |  |  |  | 
2 | C#CCOc1ccc(-c2cc(=O)c3c(O)cccc3o2)cc1 [5H4′FPE, 5-Hydroxy-2-(4-(propargyloxy)phenyl)-4H-chromen-4-one] |  |  |  |  | without having any significant effect | without having any significant effect | no inhibition | 120 | more than 250 times
